# Columns and labels:
# [1] = system: MDA-MB-231; experiment: Induction of apoptosis in human MDA-MB-231 cells assessed as viable cells at 20 uM incubated for 48 hrs by Annexin V-FITC/PI staining based flow cytometry (reference value: 91.2 %); assay type: functional; conditions: read-out: Activity
# [2] = system: MDA-MB-231; experiment: Induction of apoptosis in human MDA-MB-231 cells assessed as necrotic cells at 17.5 uM incubated for 48 hrs by Annexin V-FITC/PI staining based flow cytometry (reference value: 0.33 %); assay type: functional
# [3] = system: MDA-MB-231; experiment: Cytotoxicity against human MDA-MB-231 cells incubated for 72 hrs by CCK8 assay; assay type: functional, cell-based; conditions: MDA-MB-231, 72 h
# [4] = system: MDA-MB-231; experiment: Induction of apoptosis in human MDA-MB-231 cells assessed as necrotic cells at 15 uM incubated for 48 hrs by Annexin V-FITC/PI staining based flow cytometry (reference value: 0.33 %); assay type: functional
# [5] = system: MDA-MB-231; experiment: Induction of mitochondrial dysfunction in human MDA-MB-231 cells assessed as cell with low mitochondrial membrane potential at 15 uM incubated for 24 hrs by JC-1 staining based flow cytometry (reference value: 3.68 %); assay type: functional
# [6] = system: MDA-MB-231; experiment: Induction of mitochondrial dysfunction in human MDA-MB-231 cells assessed as cell with low mitochondrial membrane potential at 17.5 uM incubated for 48 hrs by JC-1 staining based flow cytometry (reference value: 2.50 %); assay type: functional
# [7] = system: MDA-MB-231; experiment: Induction of apoptosis in human MDA-MB-231 cells assessed as increase in cleaved caspase-9 level upto 20 uM by Western blot analysis; assay type: functional, cell-based; conditions: time 24-48 hrs, TDE = time-dependent effect
# [8] = system: MDA-MB-231; experiment: Induction of apoptosis in human MDA-MB-231 cells assessed as late apoptotic cells at 17.5 uM incubated for 48 hrs by Annexin V-FITC/PI staining based flow cytometry (reference value: 2.79 %); assay type: functional
# [9] = system: MDA-MB-231; experiment: Induction of apoptosis in human MDA-MB-231 cells assessed as early apoptotic cells at 15 uM incubated for 24 hrs by Annexin V-FITC/PI staining based flow cytometry (reference value: 7.39 %); assay type: functional
# [10] = system: MDA-MB-231; experiment: Induction of apoptosis in human MDA-MB-231 cells assessed as early apoptotic cells at 20 uM incubated for 48 hrs by Annexin V-FITC/PI staining based flow cytometry (reference value: 5.72 %); assay type: functional
# [11] = system: MDA-MB-231; experiment: Induction of apoptosis in human MDA-MB-231 cells assessed as late apoptotic cells at 15 uM incubated for 24 hrs by Annexin V-FITC/PI staining based flow cytometry (reference value: 3.36 %); assay type: functional
# [12] = system: MDA-MB-231; experiment: Induction of apoptosis in human MDA-MB-231 cells assessed as viable cells at 17.5 uM incubated for 24 hrs by Annexin V-FITC/PI staining based flow cytometry (reference value: 88.2 %); assay type: functional; conditions: read-out: Activity
# [13] = system: MDA-MB-231; experiment: Induction of apoptosis in human MDA-MB-231 cells assessed as viable cells at 17.5 uM incubated for 48 hrs by Annexin V-FITC/PI staining based flow cytometry (reference value: 91.2 %); assay type: functional; conditions: read-out: Activity
# [14] = system: MDA-MB-231; experiment: Induction of apoptosis in human MDA-MB-231 cells assessed as late apoptotic cells at 20 uM incubated for 24 hrs by Annexin V-FITC/PI staining based flow cytometry (reference value: 3.36 %); assay type: functional
# [15] = system: MDA-MB-231; experiment: Induction of apoptosis in human MDA-MB-231 cells assessed as necrotic cells at 20 uM incubated for 24 hrs by Annexin V-FITC/PI staining based flow cytometry (reference value: 1.06 %); assay type: functional
# [16] = system: MDA-MB-231; experiment: Induction of mitochondrial dysfunction in human MDA-MB-231 cells assessed as cell with low mitochondrial membrane potential at 17.5 uM incubated for 24 hrs by JC-1 staining based flow cytometry (reference value: 3.68 %); assay type: functional
# [17] = system: MDA-MB-231; experiment: Induction of apoptosis in human MDA-MB-231 cells assessed as necrotic cells at 15 uM incubated for 24 hrs by Annexin V-FITC/PI staining based flow cytometry (reference value: 1.06 %); assay type: functional
# [18] = system: MDA-MB-231; experiment: Induction of apoptosis in human MDA-MB-231 cells assessed as late apoptotic cells at 15 uM incubated for 48 hrs by Annexin V-FITC/PI staining based flow cytometry (reference value: 2.79 %); assay type: functional
# [19] = system: MDA-MB-231; experiment: Induction of apoptosis in human MDA-MB-231 cells assessed as viable cells at 15 uM incubated for 24 hrs by Annexin V-FITC/PI staining based flow cytometry (reference value: 88.2 %); assay type: functional; conditions: read-out: Activity
# [20] = system: MDA-MB-231; experiment: Induction of cell cycle arrest at G2/M phase in human MDA-MB-231 cells incubated for 12 to 24 hrs by PI/RNase staining based flow cytometry; assay type: functional; conditions: dose <= 20.0 µM, time 12-24 hrs
# [21] = system: MDA-MB-231; experiment: Induction of apoptosis in human MDA-MB-231 cells assessed as early apoptotic cells at 17.5 uM incubated for 48 hrs by Annexin V-FITC/PI staining based flow cytometry (reference value: 5.72 %); assay type: functional
# [22] = system: MDA-MB-231; experiment: Induction of apoptosis in human MDA-MB-231 cells assessed as late apoptotic cells at 20 uM incubated for 48 hrs by Annexin V-FITC/PI staining based flow cytometry (reference value: 2.79 %); assay type: functional
# [23] = system: MDA-MB-231; experiment: Induction of apoptosis in human MDA-MB-231 cells assessed as early apoptotic cells at 17.5 uM incubated for 24 hrs by Annexin V-FITC/PI staining based flow cytometry (reference value: 7.39 %); assay type: functional
# [24] = system: MDA-MB-231; experiment: Induction of apoptosis in human MDA-MB-231 cells assessed as necrotic cells at 20 uM incubated for 48 hrs by Annexin V-FITC/PI staining based flow cytometry (reference value: 0.33 %); assay type: functional
# [25] = system: MDA-MB-231; experiment: Induction of apoptosis in human MDA-MB-231 cells assessed as late apoptotic cells at 17.5 uM incubated for 24 hrs by Annexin V-FITC/PI staining based flow cytometry (reference value: 3.36 %); assay type: functional
# [26] = system: MDA-MB-231; experiment: Induction of mitochondrial dysfunction in human MDA-MB-231 cells assessed as cell with low mitochondrial membrane potential at 20 uM incubated for 24 hrs by JC-1 staining based flow cytometry (reference value: 3.68 %); assay type: functional
# [27] = system: MDA-MB-231; experiment: Induction of apoptosis in human MDA-MB-231 cells assessed as early apoptotic cells at 15 uM incubated for 48 hrs by Annexin V-FITC/PI staining based flow cytometry (reference value: 5.72 %); assay type: functional
# [28] = system: MDA-MB-231; experiment: Induction of apoptosis in human MDA-MB-231 cells assessed as viable cells at 20 uM incubated for 24 hrs by Annexin V-FITC/PI staining based flow cytometry (reference value: 88.2 %); assay type: functional; conditions: read-out: Activity
# [29] = system: MDA-MB-231; experiment: Induction of apoptosis in human MDA-MB-231 cells assessed as necrotic cells at 17.5 uM incubated for 24 hrs by Annexin V-FITC/PI staining based flow cytometry (reference value: 1.06 %); assay type: functional
# [30] = system: HepG2; experiment: Cytotoxicity against human HepG2 cells incubated for 72 hrs by CCK8 assay; assay type: functional, cell-based; conditions: HepG2, 72 h
# [31] = system: MDA-MB-231; experiment: Induction of apoptosis in human MDA-MB-231 cells assessed as viable cells at 15 uM incubated for 48 hrs by Annexin V-FITC/PI staining based flow cytometry (reference value: 91.2 %); assay type: functional; conditions: read-out: Activity
# [32] = system: MDA-MB-231; experiment: Induction of apoptosis in human MDA-MB-231 cells assessed as early apoptotic cells at 20 uM incubated for 24 hrs by Annexin V-FITC/PI staining based flow cytometry (reference value: 7.39 %); assay type: functional
# [33] = system: MDA-MB-231; experiment: Induction of apoptosis in human MDA-MB-231 cells assessed as increase in cleaved caspase-9 level incubated for 24 to 48 hrs by Western blot analysis; assay type: functional, cell-based; conditions: dose <= 20.0 µM, time 24-48 hrs
# [34] = system: MDA-MB-231; experiment: Induction of cell cycle arrest at G2/M phase in human MDA-MB-231 cells at 20 uM incubated for 12 to 24 hrs by PI/RNase staining based flow cytometry relative to control; assay type: functional; conditions: time 12-24 hrs
# [35] = system: MDA-MB-231; experiment: Induction of mitochondrial dysfunction in human MDA-MB-231 cells assessed as cell with low mitochondrial membrane potential at 15 uM incubated for 48 hrs by JC-1 staining based flow cytometry (reference value: 2.50 %); assay type: functional
# [36] = system: MDA-MB-231; experiment: Induction of mitochondrial dysfunction in human MDA-MB-231 cells assessed as cell with low mitochondrial membrane potential at 20 uM incubated for 48 hrs by JC-1 staining based flow cytometry (reference value: 2.50 %); assay type: functional
# [37] = system: A549; experiment: Cytotoxicity against human A549 cells incubated for 72 hrs by CCK8 assay; assay type: functional, cell-based; conditions: A549, 72 h
structure (smiles),measurement,setting,value
COC(=O)C[C@]12C=C3C(=O)c4ccccc4O[C@@]3(CC1)[C@H]1C(=O)N(c3ccc(C(F)(F)F)cc3)C(=O)[C@H]12,viability at 20 µM,[1],26%
same,Activity,[2],1.38%
same,IC50,[3],13 µM
same,Activity,[4],0.7%
same,Activity,[5],29.07%
same,Activity,[6],92.63%
same,Activity,[7],Tde
same,Activity,[8],14.5%
same,Activity,[9],9.01%
same,Activity,[10],56.9%
same,Activity,[11],5.84%
same,viability at 17.5 µM,[12],72.8%
same,viability at 17.5 µM,[13],40.7%
same,Activity,[14],16.8%
same,Activity,[15],2.33%
same,Activity,[16],53%
same,Activity,[17],0.98%
same,Activity,[18],7.51%
same,viability at 15 µM,[19],84.2%
same,Activity,[20],Dose-Dependent Effect
same,Activity,[21],43.4%
same,Activity,[22],15.2%
same,Activity,[23],15.3%
same,Activity,[24],1.87%
same,Activity,[25],10.3%
same,Activity,[26],59.57%
same,Activity,[27],24.4%
same,viability at 20 µM,[28],62.1%
same,Activity,[29],1.7%
same,IC50,[30],15.9 µM
same,viability at 15 µM,[31],67.4%
same,Activity,[32],18.8%
same,Activity,[33],Dose-Dependent Effect
same,Activity,[34],>15%
same,Activity,[35],70.23%
same,Activity,[36],96.87%
same,IC50,[37],19.3 µM
COC(=O)C[C@]12C=C3C(=O)c4cc(F)ccc4O[C@@]3(CC1)[C@H]1C(=O)N(c3ccc(C(F)(F)F)cc3)C(=O)[C@H]12,IC50,[3],> 50 µM
same,IC50,[30],> 50 µM
same,IC50,[37],> 50 µM
CC(=O)O[C@H]1C(=O)[C@@]2(C)[C@H]([C@H](OC(=O)c3ccccc3)[C@]3(O)C[C@H](OC(=O)[C@H](O)[C@@H](NC(=O)c4ccccc4)c4ccccc4)C(C)=C1C3(C)C)[C@]1(OC(C)=O)CO[C@@H]1C[C@@H]2O [PACLITAXEL],IC50,[3],0.11 µM
same,IC50,[30],0.06 µM
same,IC50,[37],0.4 µM
COC(=O)C[C@]12C=C3C(=O)c4ccccc4O[C@@]3(CC1)[C@H]1C(=O)NC(=O)[C@H]12,IC50,[3],> 50 µM
same,IC50,[30],> 50 µM
same,IC50,[37],> 50 µM
COC(=O)C[C@]12C=C3C(=O)c4ccccc4O[C@@]3(CC1)[C@H]1C(=O)N(C3CCCCC3)C(=O)[C@H]12,IC50,[3],> 50 µM
same,IC50,[30],> 50 µM
same,IC50,[37],> 50 µM
COC(=O)C[C@]12C=C3C(=O)c4cccc(C)c4O[C@@]3(CC1)[C@H]1C(=O)N(c3ccc(Br)cc3)C(=O)[C@H]12,IC50,[3],23.4 µM
same,IC50,[30],22.5 µM
same,IC50,[37],29.1 µM
COC(=O)C[C@]12C=C3C(=O)c4ccccc4O[C@@]3(CC1)[C@H]1C(=O)N(c3ccc(Br)cc3)C(=O)[C@H]12,IC50,[3],24.4 µM
same,IC50,[30],25.6 µM
same,IC50,[37],24.3 µM
COC(=O)C[C@]12C=C3C(=O)c4ccccc4O[C@@]3(CC1)[C@H]1C(=O)N(c3ccccc3)C(=O)[C@H]12,IC50,[3],30.5 µM
same,IC50,[30],23.6 µM
same,IC50,[37],41.9 µM
COC(=O)C[C@]12C=C3C(=O)c4ccccc4O[C@@]3(CC1)[C@H]1C(=O)N(Cc3ccccc3)C(=O)[C@H]12,IC50,[3],> 50 µM
same,IC50,[30],> 50 µM
same,IC50,[37],> 50 µM
COC(=O)C[C@]12C=C3C(=O)c4ccccc4O[C@@]3(CC1)[C@H]1C(=O)N(C)C(=O)[C@H]12,IC50,[3],37.6 µM
same,IC50,[30],16.7 µM
same,IC50,[37],37.2 µM
COC(=O)C[C@]12C=C3C(=O)c4ccccc4O[C@@]3(CC1)[C@H]1C(=O)N(C(C)(C)C)C(=O)[C@H]12,IC50,[3],> 50 µM
same,IC50,[30],> 50 µM
same,IC50,[37],> 50 µM
COC(=O)C[C@]12C=C3C(=O)c4cccc(C)c4O[C@@]3(CC1)[C@H]1C(=O)N(c3ccc(C(F)(F)F)cc3)C(=O)[C@H]12,IC50,[3],27 µM
same,IC50,[30],32.9 µM
same,IC50,[37],40.1 µM
COC(=O)C[C@]12C=C3C(=O)c4cc(F)ccc4O[C@@]3(CC1)[C@H]1C(=O)N(c3ccc(Br)cc3)C(=O)[C@H]12,IC50,[3],> 50 µM
same,IC50,[30],> 50 µM
same,IC50,[37],> 50 µM
COC(=O)C[C@]12C=C3C(=O)c4ccccc4O[C@@]3(CC1)[C@H]1C(=O)N(c3ccc(OC)cc3)C(=O)[C@H]12,IC50,[3],> 50 µM
same,IC50,[30],> 50 µM
same,IC50,[37],> 50 µM

# Source: ChEMBL document CHEMBL5550102, “Caged xanthone derivatives to promote mitochondria-mediated apoptosis in breast cancer cells” (Bioorg Med Chem, 2024)
